Five compounds from patent US20260008746A1, “CATIONIC LIPID COMPOUND WITH HIGH EFFICIENCY, LOW TOXICITY AND STABLE EXPRESSION, AND COMPOSITION COMPRISNG SAME” (HANGZHOU TIANLONG PHARMACEUTICAL CO., LTD, priority 2023, published 2026) can be followed below.

Data set [1] relates to 293T cells. Description: Cell survival rate determination (CCK-8). It is filed as cell-based. To be noted: for Cell survival rate (%): LNP formulation containing 1.5 μg Fluc-mRNA, 24 hours, CCK-8, absorbance at 450 nm; for cell survival rate lower than that of YK-101: cell survival rate of YK-101 minus that of named substance; for cell survival rate lower than that of YK-107: cell survival rate of YK-107 minus that of named substance; for cell survival rate lower than that of YK-108: cell survival rate of YK-108 minus that of named substance. The gist of the method: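 293T cells were seeded overnight at 10,000 cells/well in 96-well plates, then exposed for 24 h to LNP containing 1.5 μg Fluc-mRNA (cationic:neutral:structural:polymer-conjugated lipid, 49:10:39.5:1.5 molar) or to Lipofectamine 3000. Viability was read by CCK-8, 1 h incubation, absorbance 450 nm.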

A further data set has as its system BALB/C mice. The data set can be described thus: In vivo imaging of Fluc-mRNA expression in mice delivered by LNP formulations. To be noted: for average radiation intensity, 6 h / average radiation intensity, 24 h / average radiation intensity, 48 h / average radiation intensity, 7 d: LNP containing 10 pg Fluc-mRNA, intramuscular, female BALB/C mice. The gist of the method:
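Female BALB/C mice (4-6 weeks, 17-19 g) received LNP carrying […] Fluc-mRNA intramuscularly. Substrate was given intraperitoneally at 6 h, 24 h, 48 h and 7 d, and average radiance was imaged by IVIS 5 min later.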

The test system of data set [2] is 293T cells. The data set can be described thus: Fluorescent detection of Fluc-mRNA (cell transfection efficiency of LNP formulations). It is filed as cell-based. To be noted: for Relative light unit (RLU): LNP formulation containing 0.3 μg Fluc-mRNA, 96-well plate, 24 hours; for Multiples (YK-101): RLU of YK-101 / RLU of named substance; for Multiples (YK-107): RLU of YK-107 / RLU of named substance; for Multiples (YK-108): RLU of YK-108 / RLU of named substance; for Ratio relative to SM-102: RLU of named substance / RLU of SM-102; for fluorescence absorption value, times that of HHMA: RLU of named substance / RLU of HHMA; for fluorescence absorption value, times that of Lipofectamine 3000: RLU of named substance / RLU of Lipofectamine 3000; for Fluc-mRNA expression signal intensity, times that of compound 21: RLU of named substance / RLU of compound 21; for fluorescence absorption value, times that of compound 23: RLU of named substance / RLU of compound 23; for difference from SM-102 in Fluc-mRNA fluorescence (GraphPad Prism analysis): statistical comparison with SM-102. The method, boiled down: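 293T cells seeded at 10,000 per well, cultured overnight, then given LNP carrying 0.3 μg Fluc-mRNA (cationic:neutral:structured:PEG-lipid 49:10:39.5:1.5 molar). Incubated 24 h. Luciferase signal read with kit reagent on an IVIS imaging system.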

The nature of data set [3]: Determination of particle size and polydispersity index (PDI) of lipid nanoparticles by dynamic light scattering. The format is physicochemical. Particulars: LNP formulation of named cationic lipid/DSPC/cholesterol/DMG-PEG2000 49:10:39.5:1.5; for Particle size (nm): 90° scattering angle, 25° C. As to the method: The cationic lipids listed in Table 1 were dissolved in ethanol with DSPC (AVT (Shanghai) Pharmaceutical Technology Co., Ltd.), cholesterol (AVT (Shanghai) Pharmaceutical Technology Co., Ltd.) and DMG-PEG2000 according to a molar ratio of 49:10:39.5:1.5, respectively, to prepare lipid solution in ethanol. The lipid solution in ethanol was quickly added to citrate buffer (pH=4 to 5) by ethanol injection method, and vortexed for 30 s for later use. eGFP-mRNA (from Shanghai Biohub International Trade Co., Ltd) or Fluc-mRNA (from Shanghai Biohub International Trade Co., Ltd) was diluted in citrate buffer (pH=4 to 5) to give an aqueous mRNA solution. A certain volume of liposome solution and mRNA aqueous solution were used to prepare liposomes at a weight ratio of total lipids to mRNA of 15:1. The mixtures were sonicated at 25° C. for 15 min (with an ultrasonic frequency of 40 kHz and an ultrasonic power of 800 W). The resulting liposomes were diluted to 10 times volume with PBS, and then ultrafiltered with a 300 KDa ultrafiltration tube to remove ethanol. Then the volume was fixed to a certain volume with PBS to give an LNP formulation encapsulating eGFP-mRNA or Fluc-mRNA using cationic lipid/DSPC/cholesterol/DMG-PEG2000 (49:10:39.5:1.5 in molar percentage).
The particle size and polydispersity index (PDI) were determined by dynamic light scattering using Malvern laser particle size analyzer.
10 μL of the liposome solution was weighed, diluted to 1 mL with RNase-free deionized water, and added to the sample pool. Each sample was measured in triplicate. The measurement conditions were: 90° scattering angle, and 25° C.

Consider `CCCCCCCCC(CCCCCC)C(=O)OCCCCCCN(CCCCO)CCCCCCOC(=O)C(CCCCCC)CCCCCCCC` (centres unmarked) [ALC-0315, reference compound], for which, in the data set on 293T cells [1], the “Cell survival rate (%)” value was determined as 51.02%, the “cell survival rate lower than that of YK-101” value amounted to 39.10%, the “cell survival rate lower than that of YK-107” value is 39.43% and the “cell survival rate lower than that of YK-108” value is recorded as 38.84%. In the data set with BALB/C mice (6 h), the “average radiation intensity of YK-101, times that of named substance” value worked out at 1.8 times; the “average radiation intensity of YK-107, times that of named substance” value is 1.9 times; the “average radiation intensity of YK-108, times that of named substance” value is on record as 2.4 times; the “average radiation intensity, 6 h” value was 830590. In addition, in the data set with BALB/C mice (24 h), the “average radiation intensity of YK-101, times that of named substance” value was 5.9 times; the “average radiation intensity of YK-107, times that of named substance” value stood at 7.2 times; the “average radiation intensity of YK-108, times that of named substance” value came out at 7.8 times; the “average radiation intensity, 24 h” value is recorded as 179680. In the data set with BALB/C mice (48 h), the “average radiation intensity of YK-101, times that of named substance” value stood at 4.8 times; the “average radiation intensity of YK-107, times that of named substance” value is on record as 5.8 times; the “average radiation intensity of YK-108, times that of named substance” value is 5.9 times; the “average radiation intensity, 48 h” value stood at 39015. Also, in the data set on BALB/C mice (7 d), the “average radiation intensity of YK-101, times that of named substance” value amounted to 1.8 times; the “average radiation intensity of YK-107, times that of named substance” value was 2.0 times; the “average radiation intensity of YK-108, times that of named substance” value is 2.1 times; the “average radiation intensity, 7 d” value stood at 6643. Besides, in the data set with 293T cells [2], the “Relative light unit (RLU)” value is on record as 2056890 RLU, the “Multiples (YK-101)” value worked out at 9.89, the “Multiples (YK-107)” value stood at 10.87 and the “Multiples (YK-108)” value was 11.99. The “Ratio relative to SM-102” value in the data set with 293T cells [2] is 1.34. Also, in data set [3], the “PDI(%)” value amounted to 15.0% and the “Particle size (nm)” value is reported as 209 nm.
On to `CCCCCCCCC(CCCCCCCC)OC(=O)CCCCCCCN(CCO)CCCCCCCC(=O)OCCC(CCCCCC)CCCCCC` [Compound 21, 9-heptadecyl 8-(8-((3-hexylnonyl)oxy)-8-oxoctyl)-((2-hydroxyethyl)amino)octoate, reference compound], for which, in the data set with 293T cells [1], the “Cell survival rate (%)” value is listed as 68.53%, the “cell survival rate lower than that of YK-101” value stood at 21.59%, the “cell survival rate lower than that of YK-107” value worked out at 21.92% and the “cell survival rate lower than that of YK-108” value is reported as 21.33%. Also, in the data set with BALB/C mice (6 h), the “average radiation intensity of YK-101, times that of named substance” value is 2.5 times; the “average radiation intensity of YK-107, times that of named substance” value is 2.6 times; the “average radiation intensity of YK-108, times that of named substance” value is recorded as 3.3 times; the “average radiation intensity, 6 h” value is listed as 606680. In addition, in the data set on BALB/C mice (24 h), the “average radiation intensity of YK-101, times that of named substance” value is reported as 9.6 times; the “average radiation intensity of YK-107, times that of named substance” value is listed as 11.8 times; the “average radiation intensity of YK-108, times that of named substance” value was 12.8 times; the “average radiation intensity, 24 h” value is reported as 110210. In the data set with BALB/C mice (48 h), the “average radiation intensity of YK-101, times that of named substance” value was 6.0 times; the “average radiation intensity of YK-107, times that of named substance” value is recorded as 7.3 times; the “average radiation intensity of YK-108, times that of named substance” value is given as 7.4 times; the “average radiation intensity, 48 h” value came out at 31062. Moreover, in the data set with BALB/C mice (7 d), the “average radiation intensity of YK-101, times that of named substance” value stood at 2.0 times; the “average radiation intensity of YK-107, times that of named substance” value is recorded as 2.2 times; the “average radiation intensity of YK-108, times that of named substance” value came to 2.4 times; the “average radiation intensity, 7 d” value is given as 6024. In the data set with 293T cells [2], the “Relative light unit (RLU)” value came out at 1389141 RLU, the “Multiples (YK-101)” value turned out to be 14.64, the “Multiples (YK-107)” value stood at 16.10 and the “Multiples (YK-108)” value was 17.75. Besides, the “Ratio relative to SM-102” value in the data set with 293T cells [2] was found to be 0.91. In data set [3], the “PDI(%)” value is given as 12.5% and the “Particle size (nm)” value turned out to be 151 nm.
For the compound `CCCCCCCCCCOC(=O)CCCN(CCCCCC(=O)OCC(CCCCCCCC)CCCCCCCC)CCOCCOCCO` [YK-122, 2-octyldecyl 6-(4-(decyloxy)-4-oxobutyl)(2-(2-(2-hydroxyethoxy)ethoxy-ethyl)amino)hexanoate], in the data set on 293T cells [1], the “Cell survival rate (%)” value was determined as 79.15%, the “cell survival rate lower than that of YK-101” value was 10.97%, the “cell survival rate lower than that of YK-107” value stood at 11.30% and the “cell survival rate lower than that of YK-108” value stood at 10.71%. Also, in the data set on 293T cells [2], the “cell transfection efficiency, times that of YK-121” value came to 3.3 times; the “Relative light unit (RLU)” value worked out at 1418705 RLU; the “Multiples (YK-101)” value stood at 14.33; the “Multiples (YK-107)” value amounted to 15.76. Besides, in the data set on 293T cells [2], the “Multiples (YK-108)” value was determined as 17.38; the “fluorescence absorption value, times that of HHMA” value came to 0.69 times; the “fluorescence absorption value, times that of Lipofectamine 3000” value was 1.32 times; the “Ratio relative to SM-102” value came to 0.92. Further, in the data set with 293T cells [2], the “Fluc-mRNA expression signal intensity, times that of compound 21” value (“Fluc-mRNA expression signal intensity” for short) was found to be 1.02 times; the “fluorescence absorption value, times that of compound 23” value was determined as 1.10 times; the “difference from SM-102 in Fluc-mRNA fluorescence (GraphPad Prism analysis)” value (“difference” below) is “no significant difference”. Also, in data set [3], the “PDI(%)” value is 7.7% and the “Particle size (nm)” value is reported as 205 nm.
In the case of `CCCCCCCCCCOC(=O)CCCN(CCCCCC(=O)OCC(CCCCCCCC)CCCCCCCC)CCOCCO` [YK-124, 2-octyldecyl 6-(4-(decyloxy)-4-oxobutyl)(2-(2-hydroxyethoxy-ethyl)amino)hexanoate], in the data set with 293T cells [1], the “Cell survival rate (%)” value worked out at 77.56%, the “cell survival rate lower than that of YK-101” value was 12.56%, the “cell survival rate lower than that of YK-107” value came to 12.89% and the “cell survival rate lower than that of YK-108” value is 12.30%. In the data set on 293T cells [2], the “Relative light unit (RLU)” value was 81596 RLU; the “fluorescence absorption value, times that of HHMA” value came out at 0.04 times; the “fluorescence absorption value, times that of Lipofectamine 3000” value is on record as 0.08 times; the “Ratio relative to SM-102” value was 0.05. Further, in the data set on 293T cells [2], the “Fluc-mRNA expression signal intensity” value came out at 0.06 times; the “fluorescence absorption value, times that of compound 23” value amounted to 0.06 times; the “difference” value was “significant difference”. In addition, in data set [3], the “PDI(%)” value is recorded as 14.7% and the “Particle size (nm)” value is reported as 216 nm.
For the compound `CCCCCCCCCCOC(=O)CCCN(CCCCCC(=O)OCCC(CCCCCC)CCCCCC)CCOC(=O)CCCN(C)C` [YK-125], in the data set on 293T cells [1], the “Cell survival rate (%)” value stood at 35.39%, the “cell survival rate lower than that of YK-101” value is 54.73%, the “cell survival rate lower than that of YK-107” value turned out to be 55.06% and the “cell survival rate lower than that of YK-108” value was found to be 54.47%. Besides, in the data set on 293T cells [2], the “Relative light unit (RLU)” value was determined as 169824 RLU; the “Multiples (YK-107)” value is 131.67; the “fluorescence absorption value, times that of HHMA” value stood at 0.08 times; the “fluorescence absorption value, times that of Lipofectamine 3000” value was found to be 0.16 times. In addition, in the data set with 293T cells [2], the “Ratio relative to SM-102” value is 0.11; the “Fluc-mRNA expression signal intensity” value came out at 0.12 times; the “fluorescence absorption value, times that of compound 23” value turned out to be 0.13 times; the “difference” value is recorded as “significant difference”. Further, in data set [3], the “PDI(%)” value is on record as 26.4% and the “Particle size (nm)” value stood at 220 nm.
